One test concerns NCI-H1048 cells. Description: MTT proliferation assay, NCI-H1048.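 Note: Dose-response in 96-well plates over 8 or 10 concentration points, with exposure spanning 3-4 cell doublings.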 The format is cell-based. Particulars: 5 days compound exposure, 1:3 serial dilution starting at 10 μM. (Tetrazolium dyes change colour on reduction, which living cells bring about.)
The target in a further test is T1, CyclinB1/CDK1 (Homo sapiens, UniProt P14635).
T1 construct: purchased Eurofins, discovery 14-450
Description: Fluorescence Polarization (FP) competitive binding assay, Cyclin B1/Cdk1.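 Note: fluorescence polarization read after equilibration at room temperature, with IC50 taken from serially diluted dose-response curves.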 Particulars: 10 nM Cyclin B1/Cdk1, 2 nM FAM probe; average of 2-3 independent experiments; read-out: Cyclin B FP IC50. On the technique in general: In fluorescence polarisation assays a small probe gives low polarisation when free and higher when bound to something large.

A further test concerns OVCAR3 cells. Description: MTT proliferation assay, OVCAR3.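 Note: compound given as an 8- or 10-point series, one day after plating, with exposure covering roughly 3-4 cell doublings.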 The format is cell-based. Particulars: 5 days compound exposure, 1:3 serial dilution starting at 10 μM.
Another test concerns the target T2, CyclinA2/CDK2 (Homo sapiens, UniProt P20248).
T2 construct: purchased CRELUX Protein Services
Kind of test: Fluorescence Polarization (FP) competitive binding assay, Cyclin A2/Cdk2.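 Note: plates equilibrated two hours at room temperature before polarization reading, IC50 fitted from eight-concentration compound titration curves.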 Particulars: 8 nM Cyclin A2/Cdk2, 2 nM FAM probe; average of 2-3 independent experiments; read-out: Cyclin A FP IC50.

A further test relates to WI-38 cells. Kind of test: MTT proliferation assay, WI-38.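 Note: Eight- or ten-point dilution series, with exposure length chosen to span about three to four cell doublings.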 The format is cell-based. As to conditions: 3 days compound exposure, 1:3 serial dilution starting at 10 μM.
Another test concerns the target T3, CyclinE1/CDK2 (Homo sapiens, UniProt P24864).
T3 construct: purchased Eurofins, discovery 14-475
Description: Fluorescence Polarization (FP) competitive binding assay, Cyclin E1/Cdk2.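 Note: readings taken after two-hour equilibration at room temperature in HEPES buffer with NaCl, DTT, NP-40 and BSA, IC50 fitted from eight-concentration serial dilution series.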 As to conditions: 10 nM Cyclin E1/Cdk2, 2 nM FAM probe; average of 2-3 independent experiments; read-out: Cyclin E FP IC50.

Structures are written as SMILES. *1 amine or outer side, *2 acyl side, *3 side chain or, on linkers, in order; H or OH if unused. Where a SMILES comes first, the peptide text is derived from it. Bridges are numbered along the chain shown (N, C = ends). [ ]: non-standard residue; d: D form. The star is where a group is joined. X116 = CN([C@@H](Cc1cc(Cl)ccc1-c1cnc2c(c1)ncn2C)C(=O)[*:2])[*:1]; X35 = CN([C@@H](Cc1cc(Cl)ccc1-c1cnc2ccnn2c1)C(=O)[*:2])[*:1]; X97 = CN([C@@H](Cc1cc(Cl)ccc1-c1ccn2ncnc2c1)C(=O)[*:2])[*:1]; NMehhhLys(Me) = CN([C@@H](CCCCCCCN(C)[*:3])C(=O)[*:2])[*:1]; X22 = CN([C@@H](Cc1cc(Cl)ccc1-c1cnn(C)c1)C(=O)[*:2])[*:1]; X29 = CN([C@@H](Cc1cc(Cl)ccc1-c1cn[nH]c1)C(=O)[*:2])[*:1]; X44 = Cc1nnc(-c2ccc(Cl)cc2C[C@@H](C(=O)[*:2])N(C)[*:1])o1; NMe(hhhLys) = CN([C@@H](CCCCCCCN[*:3])C(=O)[*:2])[*:1]; Oxane2carbonyl(2R-CF3) = O=C([C@@]1(C(F)(F)F)CCCCO1)*; Cyclobutanecarbonyl(1-CF3) = O=C(C1(C(F)(F)F)CCC1)*; cBuCO(3,3-F2-1-CF3) = O=C(C1(C(F)(F)F)CC(F)(F)C1)*; Pro(trans-4-F) = O=C(O)[C@@H]1C[C@@H](F)CN1; X27 = O=C([C@]1(C(F)(F)F)CCCCO1)*; Gly(cPr) = N[C@H](C(=O)O)C1CC1

Take `Cc1nnc(-c2ccc(Cl)cc2C[C@H]2C(=O)NCCCCCCC[C@H](N(C)C(=O)[C@@H](NC(=O)[C@@H]3C[C@@H](F)CN3C(=O)C3(C(F)(F)F)CC(F)(F)C3)C3CC3)C(=O)N[C@@H](CC(C)C)C(=O)N2C)o1` [Example 160] ({cBuCO(3,3-F2-1-CF3)}-[Pro(trans-4-F)][Gly(cPr)][NMe(hhhLys)]L[X44]; lactam 3-C): the GI50 (in general, the concentration at which growth is held to half of that of the control) is 0.02 µM with NCI-H1048 cells, 0.02 µM with OVCAR3 cells and 11.5 µM in the test with WI-38 cells. Moreover, the IC50 (in general, the concentration at which inhibition is half-maximal) came out at 0.02 µM at CyclinB1/CDK1, 0.02 µM at CyclinA2/CDK2 and 0.27 µM on CyclinE1/CDK2.
For `CC(C)C[C@@H]1NC(=O)[C@@H](N(C)C(=O)[C@@H](NC(=O)[C@@H]2C[C@@H](F)CN2C(=O)C2(C(F)(F)F)CC(F)(F)C2)C2CC2)CCCCCCCN(C)C(=O)[C@H](Cc2cc(Cl)ccc2-c2cn[nH]c2)N(C)C1=O` [Example 167] ({cBuCO(3,3-F2-1-CF3)}-[Pro(trans-4-F)][Gly(cPr)][NMehhhLys(Me)]L[X29]; lactam 3-C), the GI50 came out at 0.01 µM in the test with NCI-H1048 cells, 0.01 µM in the test on OVCAR3 cells and 19.7 µM in the test on WI-38 cells. For the same compound, the results for the IC50 on CyclinB1/CDK1, on CyclinA2/CDK2 and at CyclinE1/CDK2 were 0.02 µM, 0.02 µM and 0.28 µM, respectively.
Regarding `CC(C)C[C@@H]1NC(=O)[C@@H](N(C)C(=O)[C@@H](NC(=O)[C@@H]2C[C@@H](F)CN2C(=O)C2(C(F)(F)F)CC(F)(F)C2)C2CC2)C/C=C\CCCCN(C)C(=O)[C@H](Cc2cc(Cl)ccc2-c2cnn(C)c2)N(C)C1=O` [Example 168], the figures for the GI50 with NCI-H1048 cells, with OVCAR3 cells and with WI-38 cells were 0.01 µM, 0.01 µM and 13.1 µM, respectively. In addition, the IC50 on CyclinB1/CDK1 was 0.02 µM; at CyclinA2/CDK2 it was 0.02 µM; on CyclinE1/CDK2, 0.16 µM.
`CC(C)C[C@@H]1NC(=O)[C@@H](N(C)C(=O)[C@@H](NC(=O)[C@@H]2C[C@@H](F)CN2C(=O)C2(C(F)(F)F)CC(F)(F)C2)C2CC2)CCCCCCCN(C)C(=O)[C@H](Cc2cc(Cl)ccc2-c2cnc3ccnn3c2)N(C)C1=O` [Example 172] ({cBuCO(3,3-F2-1-CF3)}-[Pro(trans-4-F)][Gly(cPr)][NMehhhLys(Me)]L[X35]; lactam 3-C): the GI50 with NCI-H1048 cells was determined as 0.03 µM; with OVCAR3 cells, 0.06 µM; with WI-38 cells, 13.7 µM. Also, the values for the IC50 on CyclinB1/CDK1, at CyclinA2/CDK2 and at CyclinE1/CDK2 were 0.02 µM, 0.06 µM and 2.43 µM, respectively.
`CC(C)C[C@@H]1NC(=O)[C@@H](N(C)C(=O)[C@@H](NC(=O)[C@@H]2C[C@@H](F)CN2C(=O)C2(C(F)(F)F)CCC2)C2CC2)C/C=C\CCCCN(C)C(=O)[C@H](Cc2cc(Cl)ccc2-c2cnn(C)c2)N(C)C1=O` [Example 173]: the GI50 was found to be 0.01 µM in the test with NCI-H1048 cells, 0.01 µM in the test with OVCAR3 cells and 12.7 µM in the test on WI-38 cells. Also, the IC50 was determined as 0.02 µM on CyclinB1/CDK1, 0.02 µM on CyclinA2/CDK2 and 0.1 µM on CyclinE1/CDK2.
Regarding `CC(C)C[C@@H]1NC(=O)[C@@H](N(C)C(=O)[C@@H](NC(=O)[C@@H]2C[C@@H](F)CN2C(=O)[C@@]2(C(F)(F)F)CCCCO2)C2CC2)C/C=C\CCCCN(C)C(=O)[C@H](Cc2cc(Cl)ccc2-c2cnn(C)c2)N(C)C1=O` [Example 174], the GI50 in the test on NCI-H1048 cells is 0.01 µM; in the test with OVCAR3 cells, 0.01 µM; with WI-38 cells, 6.98 µM. The values for the IC50 on CyclinB1/CDK1, on CyclinA2/CDK2 and on CyclinE1/CDK2 were 0.02 µM, 0.02 µM and 0.1 µM, respectively.
On to `CC(C)C[C@@H]1NC(=O)[C@@H](N(C)C(=O)[C@@H](NC(=O)[C@@H]2C[C@@H](F)CN2C(=O)C2(C(F)(F)F)CC(F)(F)C2)C2CC2)C/C=C\CCCCN(C)C(=O)[C@H](Cc2cc(Cl)ccc2-c2cnn(C3CC3)c2)N(C)C1=O` [Example 175], for which the GI50 in the test on NCI-H1048 cells was found to be 0.01 µM; in the test on OVCAR3 cells it was 0.01 µM; with WI-38 cells, 6.85 µM. The IC50 on CyclinB1/CDK1 is 0.02 µM; on CyclinA2/CDK2 it was 0.02 µM; on CyclinE1/CDK2, 0.13 µM.
Turning to `CC(C)C[C@@H]1NC(=O)[C@@H](N(C)C(=O)[C@@H](NC(=O)[C@@H]2C[C@@H](F)CN2C(=O)C2(C(F)(F)F)CCC2)C2CC2)C/C=C\CCCCN(C)C(=O)[C@H](Cc2cc(Cl)ccc2-c2cnn(C3CC3)c2)N(C)C1=O` [Example 176], the GI50 was determined as 0.01 µM with NCI-H1048 cells, 0.01 µM in the test on OVCAR3 cells and 5.48 µM in the test on WI-38 cells. For the same compound, the IC50 turned out to be 0.02 µM on CyclinB1/CDK1, 0.02 µM at CyclinA2/CDK2 and 0.1 µM on CyclinE1/CDK2.
Consider `CC(C)C[C@@H]1NC(=O)[C@@H](N(C)C(=O)[C@@H](NC(=O)[C@@H]2C[C@@H](F)CN2C(=O)C2(C(F)(F)F)CC(F)(F)C2)C2CC2)CCCCCCCN(C)C(=O)[C@H](Cc2cc(Cl)ccc2-c2cnc3c(c2)ncn3C)N(C)C1=O` [Example 177] ({cBuCO(3,3-F2-1-CF3)}-[Pro(trans-4-F)][Gly(cPr)][NMehhhLys(Me)]L[X116]; lactam 3-C), for which the results for the GI50 with NCI-H1048 cells, with OVCAR3 cells and in the test on WI-38 cells were 0.01 µM, 0.01 µM and 8.96 µM, respectively. The figures for the IC50 on CyclinB1/CDK1, at CyclinA2/CDK2 and on CyclinE1/CDK2 were 0.02 µM, 0.02 µM and 0.46 µM, respectively.
Turning to `CC(C)C[C@@H]1NC(=O)[C@@H](N(C)C(=O)[C@@H](NC(=O)[C@@H]2C[C@@H](F)CN2C(=O)C2(C(F)(F)F)CC(F)(F)C2)C2CC2)CCCCCCCN(C)C(=O)[C@H](Cc2cc(Cl)ccc2-c2ccn3ncnc3c2)N(C)C1=O` [Example 179] ({cBuCO(3,3-F2-1-CF3)}-[Pro(trans-4-F)][Gly(cPr)][NMehhhLys(Me)]L[X97]; lactam 3-C), the GI50 is 0.01 µM with NCI-H1048 cells, 0.03 µM in the test on OVCAR3 cells and 11.6 µM in the test with WI-38 cells. Besides, the IC50 on CyclinB1/CDK1 was found to be 0.02 µM; at CyclinA2/CDK2 it was 0.03 µM; at CyclinE1/CDK2, 1.13 µM.
For `CC(C)C[C@@H]1NC(=O)[C@@H](N(C)C(=O)[C@@H](NC(=O)[C@@H]2C[C@@H](F)CN2C(=O)[C@]2(C(F)(F)F)CCCCO2)C2CC2)CCCCCCCN(C)C(=O)[C@H](Cc2cc(Cl)ccc2-c2cnn(C)c2)N(C)C1=O` [Example 183] (X27-[Pro(trans-4-F)][Gly(cPr)][NMehhhLys(Me)]L[X22]; lactam 3-C), the GI50 in the test with NCI-H1048 cells came to 0.01 µM; with OVCAR3 cells it was 0.02 µM; with WI-38 cells, 5.07 µM. The figures for the IC50 at CyclinB1/CDK1, on CyclinA2/CDK2 and on CyclinE1/CDK2 were 0.02 µM, 0.03 µM and 0.28 µM, respectively.
Consider `CC(C)C[C@@H]1NC(=O)[C@@H](N(C)C(=O)[C@@H](NC(=O)[C@@H]2C[C@@H](F)CN2C(=O)[C@@]2(C(F)(F)F)CCCCO2)C2CC2)CCCCCCCN(C)C(=O)[C@H](Cc2cc(Cl)ccc2-c2cnn(C)c2)N(C)C1=O` [Example 184] ({Oxane2carbonyl(2R-CF3)}-[Pro(trans-4-F)][Gly(cPr)][NMehhhLys(Me)]L[X22]; lactam 3-C), for which the GI50 with NCI-H1048 cells turned out to be 0.01 µM; in the test with OVCAR3 cells, 0.01 µM; with WI-38 cells, 3.65 µM. Moreover, the IC50 on CyclinB1/CDK1 was determined as 0.02 µM; on CyclinA2/CDK2, 0.02 µM; on CyclinE1/CDK2, 0.1 µM.
In the case of `CC(C)C[C@@H]1NC(=O)[C@@H](N(C)C(=O)[C@@H](NC(=O)[C@@H]2C[C@@H](F)CN2C(=O)C2(C(F)(F)F)CCC2)C2CC2)CCCCCCCN(C)C(=O)[C@H](Cc2cc(Cl)ccc2-c2cnn(C)c2)N(C)C1=O` [Example 185] ({Cyclobutanecarbonyl(1-CF3)}-[Pro(trans-4-F)][Gly(cPr)][NMehhhLys(Me)]L[X22]; lactam 3-C), the GI50 in the test with NCI-H1048 cells worked out at 0.01 µM; in the test on OVCAR3 cells, 0.01 µM; in the test on WI-38 cells it was 10.3 µM. In addition, the IC50 on CyclinB1/CDK1 was 0.02 µM; on CyclinA2/CDK2, 0.02 µM; at CyclinE1/CDK2, 0.11 µM.
